Measurements as given in patent US20080261911A1, “Uses of diphenyl/diphenylamine carboxylic acids” (priority 2006, published 2008).

Experiments:
VEGF = test: Immunostaining of VEGF in Panc-1 cells; type: cell-based; details: 50 μM, 48 hr
Description: Panc1 cells are seeded in LAB-TEK® chamber slides (Nalge Nunc International, Naperville, Ill.) at 100,000 cells/well in DME/F12 medium supplemented with 5% fetal bovine serum. Cells are treated with the selected non-steroidal anti-inflammatory drugs and after 48 hr, the media chamber is detached and the remaining glass slides washed in Dulbecco's phosphate buffered saline (PBS). The immunostaining for vascular endothelial growth factor (VEGF) is determined essentially as previously described (Abdelrahim et al, 2005). Briefly, the glass slides are fixed with cold (-20° C.) methanol for 10 min and washed in 0.3% PBS/Tween for 5 min (two times) before blocking with 5% goat serum in antibody dilution buffer (stock solution: 100 ml of PBS/Tween, Ig of bovine serum albumin, 45 ml of glycerol, pH 8.0) for 1 hr at 20° C. After removal of the blocking solution, VEGF rabbit polyclonal antibody (A-20) is added in antibody dilution buffer (1:200) and incubated for 12 hr at 4° C. Slides are washed for 10 min with 0.3% Tween in 0.02 M phosphate buffered saline (three times) and incubated with fluorescein isothiocyanate-conjugated (FITC) goat anti-rabbit antibodies (1:1000 dilution) for 2 hr at 20° C. Slides are then washed for 10 min in 0.3% PBS-Tween (four times). […]

VEGFR1 = VEGFR1 protein expression in Panc-1 cells (Western blot, immunostaining); type: cell-based; details: 50 μM, 48 h
Description: FIGS. 14A-14D show tolfenamic acid decreases expression of Sp and VEGFR1 proteins in pancreatic cancer cells. Tolfenamic acid effects on Panc-1 cells (FIG. 14A and FIG. 14B), and L3.6pl cells (FIG. 14C and FIG. 14D). Cells were treated with DMSO, 50 μM tolfenamic acid, or 50 μM ampiroxicam for 48 h, and whole cell lysates were analyzed by Western blot analysis. […] FIGS. 16A-16D show the interaction of Sp proteins with VEGFR1 promoter sequences. […] The specific Sp protein bands and antibody supershifted complexes are indicated with arrows. Effects of tolfenamic acid on VEGFR1 and Egr-1 protein expression in Panc-1 cells (FIG. 16C), and L3.6pl cells (FIG. 16D). […] Cells are washed once with phosphate buffered saline PBS and collected by scraping in 200 μL of lysis buffer [50 mM HEPES, 0.5M sodium chloride, 1.5 mM magnesium chloride, 1 mM EGTA, 10% (v/v) glycerol, 1% Triton X-100, 5 μL/ml of Protease Inhibitor Cocktail (Sigma)]. The lysates from the cells are incubated on ice for 1 hr with intermittent vortexing followed by centrifugation at 40,000 g for 10 min at 4° C. […] Samples are electrophoresed, transferred to membranes, and proteins detected by incubation with polyclonal primary antibodies Sp1, Sp3, Sp4, HDAC, VEGF (a-20), c-Met, surviving, VEGF, cleaved PARP, and β-tubulin (H-235) followed by blotting with appropriate horseradish peroxidase-conjugated secondary antibody as previously described (Abdelrahim et al, 2004). After autoradiography, band intensities are determined by a scanning laser densitometer (Sharp Electronics Corporation, Mahwah, N.J.) using ZERO-D […] software (Scanalytics Corporation, Billerica, Mass.).

[1] = system: VEGF-B/VEGFR1 signaling (MAPK1/2 phosphorylation); test: VEGF-B activation of MAPK in Panc-1 cells; type: cell-based; details: 50 μM pretreatment for 36 hr, VEGF-B 5 or 10 min
Description: Cells were pretreated with DMSO, 50 μM ampiroxicam, or 50 μM tolfenamic acid for 36 hr; VEGF-B (50 ng/ml) was added for 5 or 10 min, and whole cell lysates were obtained and analyzed by Western blot. Cell migration assay (FIG. 18C). […] Immunostaining of pancreatic tumors (FIG. 18D). Pancreatic tumors from athymic nude mice treated with solvent (control), gemcitabine (50 mg/kg), or tolfenamic acid (25 and 50 mg/kg) (Dick, 1996) were stained with VEGFR1 antibodies as described below and in a previous report (Dick, 1996).
Panc-1 cells were pretreated with DMSO, 50 μM ampiroxicam, or 50 μM tolfenamic acid for 48 h, and then were treated with VEGF-B (50 ng/ml) for 5 and 10 min. MAPK phosphorylation in the various treatment groups was then determined by western immunoblot analysis as described above. For migration assays, Panc-1 cells were seeded in triplicate in six-well collagen IV coated plates and then treated with the selected non-steroidal anti-inflammatory drugs for 24 h before the scratch was made. […]
Previous studies have reported that activation of VEGFR1 by VEGF-B in pancreatic cancer cells results in enhanced phosphorylation of MAPK and increased cell migration and invasion. […] The importance of Sp protein in VEGFR1-dependent Panc-1 cell migration was determined using a cell migration assay on collagen IV-coated plates.

[2] = system: cleaved poly (ADP-ribose) polymerase (PARP) protein; test: Apoptosis: cleaved PARP in Panc-1 cells, Western blot; type: cell-based; details: 48 hr
Description: Cells are washed once with phosphate buffered saline PBS and collected by scraping in 200 μL of lysis buffer [50 mM HEPES, 0.5M sodium chloride, 1.5 mM magnesium chloride, 1 mM EGTA, 10% (v/v) glycerol, 1% Triton X-100, 5 μL/ml of Protease Inhibitor Cocktail (Sigma)]. The lysates from the cells are incubated on ice for 1 hr with intermittent vortexing followed by centrifugation at 40,000 g for 10 min at 4° C. Equal amounts of protein (60 μg) from each treatment group are diluted with loading buffer, boiled and loaded onto 10 and 12.5% SDS-polyacrylamide gel. […] Samples are electrophoresed, transferred to membranes, and proteins detected by incubation with polyclonal primary antibodies Sp1, Sp3, Sp4, HDAC, VEGF (a-20), c-Met, surviving, VEGF, cleaved PARP, and β-tubulin (H-235) followed by blotting with appropriate horseradish peroxidase-conjugated secondary antibody as previously described (Abdelrahim et al, 2004). After autoradiography, band intensities are determined by a scanning laser densitometer (Sharp Electronics Corporation, Mahwah, N.J.) using ZERO-D SCANALYTICS software (Scanalytics Corporation, Billerica, Mass.).

Egr-1 protein = Egr-1 protein expression in L3.6pl cells, Western blot; type: cell-based, human; details: 50 μM, 48 h
Description: Cells are washed once with phosphate buffered saline PBS and collected by scraping in 200 μL of lysis buffer [50 mM HEPES, 0.5M sodium chloride, 1.5 mM magnesium chloride, 1 mM EGTA, 10% (v/v) glycerol, 1% Triton X-100, 5 μL/ml of Protease Inhibitor Cocktail (Sigma)]. The lysates from the cells are incubated on ice for 1 hr with intermittent vortexing followed by centrifugation at 40,000 g for 10 min at 4° C. Equal amounts of protein (60 μg) from each treatment group are diluted with loading buffer, boiled and loaded onto 10 and 12.5% SDS-polyacrylamide gel. For vascular endothelial growth factor immunoblots, 100 μg of protein are used. Samples are electrophoresed, transferred to membranes, and proteins detected by incubation with polyclonal primary antibodies Sp1, Sp3, Sp4, HDAC, VEGF (a-20), c-Met, surviving, VEGF, cleaved PARP, and β-tubulin (H-235) followed by blotting with appropriate horseradish peroxidase-conjugated secondary antibody as previously described (Abdelrahim et al, 2004). After autoradiography, band intensities are determined by a scanning laser densitometer (Sharp Electronics Corporation, Mahwah, N.J.) using ZERO-D SCANALYTICS software (Scanalytics Corporation, Billerica, Mass.).
The proximal region of the VEGFR1 promoter contains GC-rich and Egr-1 sites. […]

| SMILES | immunostaining of secreted vascular endothelial growth factor protein (VEGF) | VEGFR1 immunostaining (VEGFR1) | VEGFR1 protein levels, Western blot (VEGFR1) | VEGF-B-induced phosphorylation of MAPK1/2 [1] | poly (ADP-ribose) polymerase cleavage ([2]; 150 μM) | Egr-1 protein (Egr-1 protein) | poly (ADP-ribose) polymerase cleavage ([2]; 50 μM) |
| --- | --- | --- | --- | --- | --- | --- | --- |
| CCOC(=O)OC(C)OC1=C(C(=O)Nc2ccccn2)N(C)S(=O)(=O)c2ccccc21 (stereo not drawn) [ampiroxicam] | significant lawn of extracellular vascular endothelial growth factor staining | VEGFR1 immunostaining was observed | only the latter compound decreased VEGFR1 protein levels | increased phosphorylation of MAPK1/2 | only tolfenamic acid induced protein degradation and poly (ADP-ribose) polymerase cleavage | unchanged in all treatment groups | – |
| Cc1c(Cl)cccc1Nc1ccccc1C(=O)O [tolfenamic acid] | almost non-detectable | decreased VEGFR1 staining | decreased VEGFR1 protein levels | decreased phospho-MARK1/2 | – | unchanged in all treatment groups | induced protein degradation and poly (ADP-ribose) polymerase cleavage |
